Measured values from patent US20150342847A1, “NOVEL DERIVATIVES OF SINAPINIC ACID AND THE COSMETIC OR PHARMACEUTICAL USES THEREOF” (BASF Beauty Care Solutions France SAS, priority 2012, published 2015).

How the values were obtained:
[1] = tested on: keratinocytes; assay: Cytotoxicity, MTT cell viability on keratinocytes; format: cell-based; conditions: for Percentage cell viability, Mean: MTT
Protocol: Study of cell viability following application of the hydroxytyrosol dihydrosinapate of the invention of formula (IIa) to keratinocytes or melanocytes.
The cells (keratinocytes or melanocytes) were cultured in a 96-well plate at 37° C. under 5% CO2 in an appropriate medium until confluence. The medium was withdrawn and then an amount of 200 μL of a 0.5 mg/mL MTT solution was added. The plates were then incubated at 37° C. for 3 hours, after which the MTT solution was withdrawn from each well and replaced with DMSO. The plates were agitated for 15 minutes, and the optical density was measured at 550 nm.
The negative cytotoxicity control is PBS. The positive cytotoxicity control is 0.25% SDS. 0.1% DMSO was used as control.

[2] = tested on: keratinocytes from the A431 line; assay: Antiinflammatory activity: release of E2 prostaglandins by UVB-irradiated keratinocytes (ELISA); format: cell-based; conditions: A431 keratinocytes, 30 μM, UV B 30 mJ/cm2, untreated irradiated control = 100%
Protocol: Study of the antiinflammatory activity of the hydroxytyrosol dihydrosinapate of the invention of formula (IIa), by measurement of the inhibition of release of E2 prostaglandins by keratinocytes under the effect of UVB.
The keratinocytes from the A431 line are cultured in an appropriate medium at 37° C. for 72 hours under 5% CO2. The culture medium is then withdrawn and replaced with the medium containing the products under test, and also the positive and negative controls. The cells are subsequently irradiated with UV B at 30 mJ/cm2. The cells are incubated for an extra 24 hours at 37° C. under 5% CO2. The cell supernatants are subsequently recovered, and the E2 prostaglandins (PGE2) released are quantified by an ELISA assay.
An amount of 100 μL of each sample, control or PGE2 standard is transferred to the wells of a 96-well plate, which are coated with antibodies directed against rat immunoglobulin G (IgG). Then an amount of 25 μL of PGE2-peroxidase conjugate is added to each well, followed by an amount of 25 μL of anti-PGE2 monoclonal antibody. The plate is incubated at 4° C. overnight. The wells are then rinsed and an amount of 100 μL of peroxidase substrate is added. After 15 minutes of incubation at ambient temperature, the optical density is read off at 450 nm. The amount of prostaglandin E2 released after irradiation is deduced from a commercial PGE2 standard range from 0 to 400 pg/mL of PGE2.
The negative control, represented by the cells which were not treated with samples and which underwent irradiation by UV B, gave rise to 100% release of PGE2. The positive experimental control is aspirin, which at 0.03% gave rise to 5%+/−2% release of PGE2.

[3] = molecular target: T1, human tyrosinase (Homo sapiens, UniProt P14679); assay: Anti-human tyrosinase activity in normal human melanocytes (MBTH/L-Dopa, OD490); format: cell-based
T1 construct: endogenous in cells; host or cells: normal human melanocytes obtained from abdominal plasty
T1 sequence (P14679 19-529): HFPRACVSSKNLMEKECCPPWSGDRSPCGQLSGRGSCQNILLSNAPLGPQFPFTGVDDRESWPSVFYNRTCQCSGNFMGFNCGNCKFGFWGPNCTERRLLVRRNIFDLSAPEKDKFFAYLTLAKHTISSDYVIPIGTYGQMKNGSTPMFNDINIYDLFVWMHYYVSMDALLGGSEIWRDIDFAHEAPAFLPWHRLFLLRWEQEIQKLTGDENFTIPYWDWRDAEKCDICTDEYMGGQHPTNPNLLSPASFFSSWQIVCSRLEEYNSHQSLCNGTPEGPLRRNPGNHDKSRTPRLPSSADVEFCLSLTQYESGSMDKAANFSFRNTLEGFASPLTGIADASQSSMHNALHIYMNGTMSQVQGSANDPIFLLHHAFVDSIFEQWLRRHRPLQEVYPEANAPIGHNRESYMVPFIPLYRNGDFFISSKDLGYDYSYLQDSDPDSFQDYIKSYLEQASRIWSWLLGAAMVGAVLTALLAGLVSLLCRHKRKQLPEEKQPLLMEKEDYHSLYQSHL
Protocol: Study of the inhibition of tyrosinase by the hydroxytyrosol dihydrosinapate of the invention of formula (IIa), in comparison with the prior-art ferulic acid derivative, by quantitative analysis of the human tyrosinase activity of melanocytes cultured as a monolayer following application of the compound under test. Normal human melanocytes (obtained from abdominal plasty) are seeded in a 24-well plate at 80000 cells per well. They are cultured until confluence, and the compounds under test are applied in the culture media for 24 hours. After 24 hours, the media are removed and the melanocytes are detached by mechanical action. Extraction is carried out by thermal shock and then the supernatants are recovered and incubated with MBTH (methyl benzothiazolinone-hydrazone) (Sigma) and L-Dopa (Sigma). The optical density (OD) at 490 nm (OD490) is measured after 30 minutes of incubation, and the inhibition of tyrosinase is calculated according to the following formula: % inhibition=100−[100×(OD490 sample/level of proteins in sample)/(OD490 negative control/level of proteins in negative control)] The OD490 is therefore related to the level of protein, which is the measurement in each culture well. […] The results are presented as % inhibition of activity of tyrosinase, in Table 2.

[4] = DPPH radical scavenger test (acellular); conditions: 30 minutes
Text: Study of the radical scavenger activity of the hydroxytyrosol dihydrosinapate of the invention of formula (IIa) and of the prior-art ferulic acid derivative in an acellular in vitro model, using DPPH.
1,1-Diphenyl-2-picrylhydrazyl, owing to its paramagnetic structure, is able to accept an electron or a hydrogen radical in order to become a stable diamagnetic molecule.
The addition of a compound which provides electrons gives rise to decoloring of the 1,1-diphenyl-2-picrylhydrazyl in a manner proportional to the number of electrons accepted by the radical, and this decoloration can be monitored by measuring the absorbance at 530 nm (OD530).
[…] At the end of the incubation, the radical scavenger activity of the compound under test is evaluated by measuring the absorbance of the solution at 530 nm.
The results are presented as % inhibition of the DPPH radical, in Table 3a).
The radical scavenger activity of the test product is calculated as a percentage, according to the following formula:
100−((OD530 in the presence of the compound under test/OD530 in the absence of compound)×100)

COc1cc(CCC(=O)OCCc2ccc(O)c(O)c2)cc(OC)c1O [Hydroxytyrosol dihydrosinapate (IIa), hydroxytyrosol dihydrosinapate]
Percentage cell viability, Mean ([1]; 1 μM): 105.8% | Percentage cell viability, Mean ([1]; 10 μM): 115.2% | Percentage cell viability, Mean ([1]; 100 μM): 75.7% | cytotoxicity (in words) ([1]; 10^−6, 10^−5 and 10^−4 M, tolerated threshold 75% viability): not cytotoxic | % release of PGE2 after irradiation [2]: 22% | inhibition of the activity of human tyrosinase (in words) ([3]; human tyrosinase in the melanocytes): does not inhibit the activity of the human tyrosinase | inhibition at 1 µM ([3]; normal human melanocytes, 1 μM, 24 hours, read-out: % inhibition of activity of tyrosinase +/− standard deviation): -5.85% | inhibition at 10 µM ([3]; normal human melanocytes, 10 μM, 24 hours, read-out: % inhibition of activity of tyrosinase +/− standard deviation): -4.53% | inhibition at 100 µM ([3]; normal human melanocytes, 100 μM, 24 hours, read-out: % inhibition of activity of tyrosinase +/− standard deviation): -36.6% | % inhibition of the DPPH radical ([4]; 1 μM): 10.7 +/− 0.59% | % inhibition of the DPPH radical ([4]; 5 μM): 59.68 +/− 0.89% | % inhibition of the DPPH radical ([4]; 10 μM): 82.01 +/− 1.05% | % inhibition of the DPPH radical ([4]; 30 μM): 86.68 +/− 0.44% | % inhibition of the DPPH radical ([4]; 50 μM): 88.78 +/− 0.49% | % inhibition of the DPPH radical ([4]; 100 μM): 88.28 +/− 0.56% | % inhibition of the DPPH radical ([4]; 1000 μM): 89.14 +/− 0.40%
